pIC50: −log10 of the molar value. Like-named read-outs stand apart in the source and are kept apart here.
Molecular target: ATM (Homo sapiens (Human), UniProt Q13315)
Assay: biochemical
Type: biochemical
From the text: Assay a): ATM Biochemical Potency
Data was collected by Caliper.

Sequence of ATM (Q13315 whole entry, looked up): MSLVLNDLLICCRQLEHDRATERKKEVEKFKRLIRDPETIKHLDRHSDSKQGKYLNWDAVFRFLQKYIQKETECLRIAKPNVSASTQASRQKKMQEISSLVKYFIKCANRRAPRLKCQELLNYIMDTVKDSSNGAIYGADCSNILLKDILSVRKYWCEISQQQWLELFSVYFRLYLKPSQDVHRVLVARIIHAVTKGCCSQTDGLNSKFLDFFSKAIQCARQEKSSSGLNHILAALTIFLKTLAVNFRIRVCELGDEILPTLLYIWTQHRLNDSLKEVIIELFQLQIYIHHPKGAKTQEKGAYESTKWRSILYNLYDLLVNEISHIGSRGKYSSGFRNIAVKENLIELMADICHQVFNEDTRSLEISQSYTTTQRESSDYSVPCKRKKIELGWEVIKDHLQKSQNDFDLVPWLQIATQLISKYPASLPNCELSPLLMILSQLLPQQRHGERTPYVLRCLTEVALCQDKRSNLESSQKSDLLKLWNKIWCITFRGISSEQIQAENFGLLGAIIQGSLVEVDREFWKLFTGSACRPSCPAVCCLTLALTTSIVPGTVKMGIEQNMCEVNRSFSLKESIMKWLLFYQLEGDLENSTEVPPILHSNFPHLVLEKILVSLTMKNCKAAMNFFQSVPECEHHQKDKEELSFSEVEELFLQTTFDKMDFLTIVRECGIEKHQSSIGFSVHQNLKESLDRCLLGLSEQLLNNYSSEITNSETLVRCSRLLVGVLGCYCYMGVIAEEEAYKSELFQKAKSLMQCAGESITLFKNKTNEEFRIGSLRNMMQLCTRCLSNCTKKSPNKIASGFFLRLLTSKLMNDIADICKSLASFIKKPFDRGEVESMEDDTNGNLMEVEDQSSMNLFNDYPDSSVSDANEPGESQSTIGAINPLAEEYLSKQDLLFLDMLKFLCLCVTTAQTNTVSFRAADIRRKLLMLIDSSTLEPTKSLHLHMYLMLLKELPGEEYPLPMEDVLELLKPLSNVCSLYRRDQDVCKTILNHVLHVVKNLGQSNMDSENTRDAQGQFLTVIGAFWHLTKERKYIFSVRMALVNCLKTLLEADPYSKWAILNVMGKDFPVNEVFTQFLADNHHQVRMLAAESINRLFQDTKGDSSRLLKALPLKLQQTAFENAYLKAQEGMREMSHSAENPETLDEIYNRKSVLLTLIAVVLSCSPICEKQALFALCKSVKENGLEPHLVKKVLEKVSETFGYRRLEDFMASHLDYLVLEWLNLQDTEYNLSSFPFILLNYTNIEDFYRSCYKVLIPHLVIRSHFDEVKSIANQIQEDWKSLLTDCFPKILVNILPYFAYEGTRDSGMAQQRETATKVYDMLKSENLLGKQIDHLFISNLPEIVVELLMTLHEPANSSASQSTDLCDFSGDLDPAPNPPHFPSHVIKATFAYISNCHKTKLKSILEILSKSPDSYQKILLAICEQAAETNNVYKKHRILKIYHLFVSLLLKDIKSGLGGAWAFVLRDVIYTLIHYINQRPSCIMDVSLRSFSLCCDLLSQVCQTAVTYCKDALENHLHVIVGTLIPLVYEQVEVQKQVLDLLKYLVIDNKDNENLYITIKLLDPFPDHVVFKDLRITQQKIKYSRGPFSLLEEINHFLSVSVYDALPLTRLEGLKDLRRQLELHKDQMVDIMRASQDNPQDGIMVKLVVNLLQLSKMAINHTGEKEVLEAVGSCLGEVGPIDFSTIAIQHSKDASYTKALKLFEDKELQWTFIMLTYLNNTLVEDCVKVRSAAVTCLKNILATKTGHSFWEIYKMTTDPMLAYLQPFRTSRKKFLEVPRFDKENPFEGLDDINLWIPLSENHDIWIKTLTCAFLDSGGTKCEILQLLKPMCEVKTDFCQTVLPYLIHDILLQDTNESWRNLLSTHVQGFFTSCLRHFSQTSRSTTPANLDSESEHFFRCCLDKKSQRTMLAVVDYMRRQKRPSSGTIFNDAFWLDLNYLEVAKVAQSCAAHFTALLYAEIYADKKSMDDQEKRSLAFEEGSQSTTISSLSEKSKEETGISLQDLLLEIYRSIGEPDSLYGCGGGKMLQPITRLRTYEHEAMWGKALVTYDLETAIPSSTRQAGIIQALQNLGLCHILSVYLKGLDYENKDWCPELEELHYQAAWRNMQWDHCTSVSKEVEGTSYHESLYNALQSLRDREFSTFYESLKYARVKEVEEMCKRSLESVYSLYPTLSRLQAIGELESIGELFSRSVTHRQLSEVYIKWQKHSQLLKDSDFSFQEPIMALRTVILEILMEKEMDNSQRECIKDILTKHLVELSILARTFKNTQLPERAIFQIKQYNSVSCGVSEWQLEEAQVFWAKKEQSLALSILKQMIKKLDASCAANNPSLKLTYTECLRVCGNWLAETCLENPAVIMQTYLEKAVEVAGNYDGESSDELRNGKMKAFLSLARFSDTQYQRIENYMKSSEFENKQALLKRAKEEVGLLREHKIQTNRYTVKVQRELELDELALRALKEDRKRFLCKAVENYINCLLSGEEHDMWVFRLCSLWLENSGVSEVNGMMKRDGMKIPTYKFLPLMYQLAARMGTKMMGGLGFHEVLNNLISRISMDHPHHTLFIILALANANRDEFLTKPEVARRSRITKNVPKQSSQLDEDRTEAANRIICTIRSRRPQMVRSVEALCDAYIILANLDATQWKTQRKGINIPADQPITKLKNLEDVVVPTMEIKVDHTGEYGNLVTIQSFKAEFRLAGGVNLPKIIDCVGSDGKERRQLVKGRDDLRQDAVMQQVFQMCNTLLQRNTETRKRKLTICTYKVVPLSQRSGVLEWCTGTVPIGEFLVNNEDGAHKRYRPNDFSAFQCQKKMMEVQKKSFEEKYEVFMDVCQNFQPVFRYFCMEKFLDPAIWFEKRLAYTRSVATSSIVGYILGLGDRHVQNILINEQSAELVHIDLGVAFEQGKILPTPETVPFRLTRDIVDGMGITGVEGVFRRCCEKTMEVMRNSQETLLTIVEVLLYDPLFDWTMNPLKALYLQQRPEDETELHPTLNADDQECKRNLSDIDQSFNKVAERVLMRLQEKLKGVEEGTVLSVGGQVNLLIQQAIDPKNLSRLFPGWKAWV

SMILES	pIC50	pIC50 (read-out: ATM IC50)
C[C@@H](OCCN1CCC2(COC2)C1)c1ccc(-c2ccc3nnc4c(c3c2)n(C2CCOCC2)c(=O)n4C)cn1 [Example 116, (R)-8-(6-(1-(2-(2-oxa-6-azaspiro[3.4]octan-6-yl)ethoxy)ethyl)pyridin-3-yl)-3-methyl-1-(tetrahydro-2H-pyran-4-yl)-1H-imidazo[4,5-c]cinnolin-2(3H)-one]	8.54	
COC[C@@H]1CCN(CCO[C@H](C)c2ccc(-c3ccc4nnc5c(c4c3)n(C3CCOCC3)c(=O)n5C)cn2)C1 [Example 119, 8-(6-((R)-1-(2-((R)-3-(methoxymethyl)pyrrolidin-1-yl)ethoxy)ethyl)pyridin-3-yl)-3-methyl-1-(tetrahydro-2H-pyran-4-yl)-1H-imidazo[4,5-c]cinnolin-2(3H)-one]		8.62
C[C@@H](OCCN1CCCCC1)c1ccc(-c2ccc3nnc4c(c3c2)n(C2CCOCC2)c(=O)n4C)cn1 [Example 120, (R)-3-methyl-8-(6-(1-(2-(piperidin-1-yl)ethoxy)ethyl)pyridin-3-yl)-1-(tetrahydro-2H-pyran-4-yl)-1H-imidazo[4,5-c]cinnolin-2(3H)-one]		7.96
C[C@@H](OCCN1CCCC1)c1ccc(-c2ccc3nnc4c(c3c2)n(C2CCOCC2)c(=O)n4C)cn1 [Example 121, (R)-3-methyl-8-(6-(1-(2-(pyrrolidin-1-yl)ethoxy)ethyl)pyridin-3-yl)-1-(tetrahydro-2H-pyran-4-yl)-1H-imidazo[4,5-c]cinnolin-2(3H)-one]		7.89
C[C@@H](OCCN1CC[C@@H](OC2CC2)C1)c1ccc(-c2ccc3nnc4c(c3c2)n(C2CCOCC2)c(=O)n4C)cn1 [Example 122, 8-(6-((R)-1-(2-((R)-3-cyclopropoxypyrrolidin-1-yl)ethoxy)ethyl)pyridin-3-yl)-3-methyl-1-(tetrahydro-2H-pyran-4-yl)-1H-imidazo[4,5-c]cinnolin-2(3H)-one]		8.37
C[C@@H]1CCN(CCO[C@H](C)c2ccc(-c3ccc4nnc5c(c4c3)n(C3CCOCC3)c(=O)n5C)cn2)C1 [Example 123, 3-methyl-8-(6-((R)-1-(2-((R)-3-methylpyrrolidin-1-y)ethoxy)ethyl)pyridin-3-yl)-1-(tetrahydro-2H-pyran-4-yl)-1H-imidazo[4,5-c]cinnolin-2(3H)-one]		7.80
C[C@@H](OCCN1CCC2(CCC2)CC1)c1ccc(-c2ccc3nnc4c(c3c2)n(C2CCOCC2)c(=O)n4C)cn1 [Example 124, (R)-8-(6-(1-(2-(7-azaspiro[3.5]nonan-7-yl)ethoxy)ethyl)pyridin-3-yl)-3-methyl-1-(tetrahydro-2H-pyran-4-yl)-1H-imidazo[4,5-c]cinnolin-2(3H)-one]		8.96
C[C@@H](OCCN1CCC2(CCO2)CC1)c1ccc(-c2ccc3nnc4c(c3c2)n(C2CCOCC2)c(=O)n4C)cn1 [Example 125, (R)-8-(6-(1-(2-(1-oxa-7-azaspiro[3.5]nonan-7-yl)ethoxy)ethyl)pyridin-3-yl)-3-methyl-1-(tetrahydro-2H-pyran-4-yl)-1H-imidazo[4,5-c]cinnolin-2(3H)-one]		8.20
C[C@H]1CCN(CCO[C@H](C)c2ccc(-c3ccc4nnc5c(c4c3)n(C3CCOCC3)c(=O)n5C)cn2)C1 [Example 126, 3-methyl-8-(6-((R)-1-(2-((S)-3-methylpyrrolidin-1-yl)ethoxy)ethyl)pyridin-3-yl)-1-(tetrahydro-2H-pyran-4-yl)-1H-imidazo[4,5-c]cinnolin-2(3H)-one]		7.70
C[C@@H](OCCN1CC2(COC2)C1)c1ccc(-c2ccc3nnc4c(c3c2)n(C2CCOCC2)c(=O)n4C)cn1 [Example 127, (R)-8-(6-(1-(2-(2-oxa-6-azaspiro[3.3]heptan-6-yl)ethoxy)ethyl)pyridin-3-yl)-3-methyl-1-(tetrahydro-2H-pyran-4-yl)-1H-imidazo[4,5-c]cinnolin-2(3H)-one]		7.89
C[C@@H](OCCN1CCC(C2COC2)CC1)c1ccc(-c2ccc3nnc4c(c3c2)n(C2CCOCC2)c(=O)n4C)cn1 [Example 128, (R)-3-methyl-8-(6-(1-(2-(4-(oxetan-3-yl)piperidin-1-yl)ethoxy)ethyl)pyridin-3-yl)-1-(tetrahydro-2H-pyran-4-yl)-1H-imidazo[4,5-c]cinnolin-2(3H)-one]		8.34
C[C@@H](OCCN1CCC(C)(C#N)C1)c1ccc(-c2ccc3nnc4c(c3c2)n(C2CCOCC2)c(=O)n4C)cn1 (stereo partly drawn) [Example 130, 3-methyl-1-(2-((R)-1-(5-(3-methyl-2-oxo-1-(tetrahydro-2H-pyran-4-yl)-2,3-dihydro-1H-imidazo[4.5-c]cinnolin-8-yl)pyridin-2-yl)ethoxy)ethyl) pyrrolidine-3-carbonitrile]		7.59
CC(C)n1c(=O)n(C)c2nnc3cc(F)c(-c4ccc(COCCN5CCC(C)(C)C5)nc4)cc3c21 [Example 132, 8-(6-((2-(3,3-dimethylpyrrolidin-1-yl)ethoxy)methyl)pyridin-3-yl)-7-fluoro-1-isopropyl-3-methyl-1H-imidazo[4,5-c]cinnolin-2(3H)-one]		7.66
CC(C)n1c(=O)n(C)c2nnc3cc(F)c(-c4ccc([C@@H](C)OCCN5CCC(F)CC5)nc4)cc3c21 [Example 136, (R)-7-fluoro-8-(6-(1-(2-(4-fluoropiperidin-1-yl)ethoxy)ethyl)pyridin-3-yl)-1-isopropyl-3-methyl-1,3-dihydro-2H-imidazo[4,5-c]cinnolin-2-one]		8.00
CO[C@H]1CCN(CCO[C@H](C)c2ccc(-c3cc4c(cc3F)nnc3c4n(C(C)C)c(=O)n3C)cn2)C1 [Example 138, 7-fluoro-1-isopropyl-8-(6-((R)-1-(2-((S)-3-methoxypyrrolidin-1-yl)ethoxy)ethyl)pyridin-3-yl)-3-methyl-1H-imidazo[4,5-c]cinnolin-2(3H)-one]		7.85
CC(C)n1c(=O)n(C)c2nnc3cc(F)c(-c4ccc([C@@H](C)OCCN5CCC(C)(C)CC5)nc4)cc3c21 [Example 139, (R)-8-(6-(1-(2-(4,4-dimethylpiperidin-1-yl)ethoxy)ethyl)pyridin-3-yl)-7-fluoro-1-isopropyl-3-methyl-1H-imidazo[4,5-c]cinnolin-2(3H)-one]		8.55
CC(C)n1c(=O)n(C)c2nnc3cc(F)c(-c4ccc([C@@H](C)OCCN5CCC(OC(F)(F)F)C5)nc4)cc3c21 (stereo partly drawn) [Example 141, 7-fluoro-1-isopropyl-3-methyl-8-(6-((1R)-1-(2-(3-(trifluoromethoxy)pyrrolidin-1-yl)ethoxy)ethyl)pyridin-3-yl)-1H-imidazo[4,5-c]cinnolin-2(3H)-one]		8.20
CC(C)n1c(=O)n(C)c2nnc3cc(F)c(-c4ccc([C@@H](C)OCCN5CC6CC6C5)nc4)cc3c21 (stereo partly drawn) [Example 143, 8-(6-((1R)-1-(2-(3-azabicyclo[3.1.0]hexan-3-yl)ethoxy)ethyl)pyridin-3-yl)-7-fluoro-1-isopropyl-3-methyl-1H-imidazo[4,5-c]cinnolin-2(3H)-one]		7.96
CC(C)n1c(=O)n(C)c2nnc3cc(F)c(-c4ccc([C@@H](C)OCCN5CCC(C)(C#N)C5)nc4)cc3c21 (stereo partly drawn) [Example 147, 1-(2-((R)-1-(5-(7-fluoro-1-isopropyl-3-methyl-2-oxo-2,3-dihydro-1H-imidazo[4,5-c]cinnolin-8-yl)pyridin-2-yl)ethoxy)ethyl)-3-methylpyrrolidine-3-carbonitrile]		7.64
C[C@@H](OCCN1CCC(C)(C)CC1)c1ccc(-c2cc3c(cc2F)nnc2c3n(C3CCOCC3)c(=O)n2C)cn1 [Example 149, (R)-8-(6-(1-(2-(4,4-dimethylpiperidin-1-yl)ethoxy)ethyl)pyridin-3-yl)-7-fluoro-3-methyl-1-(tetrahydro-2H-pyran-4-yl)-1H-imidazo[4,5-c]cinnolin-2(3H)-one]		7.82
C[C@@H](OCCN1CCC2(CC1)CC2)c1ccc(-c2cc3c(cc2F)nnc2c3n(C3CCOCC3)c(=O)n2C)cn1 [Example 154, (R)-8-(6-(1-(2-(6-azaspiro[2.5]octan-6-yl)ethoxy)ethyl)pyridin-3-yl)-7-fluoro-3-methyl-1-(tetrahydro-2H-pyran-4-yl)-1H-imidazo[4,5-c]cinnolin-2(3H)-one]		8.44
C[C@@H](OCCN1CC[C@@H](OC(F)F)C1)c1ccc(-c2cc3c(cc2F)nnc2c3n(C3CCOCC3)c(=O)n2C)cn1 [Example 155, 8-(6-((R)-1-(2-((R)-3-(difluoromethoxy)pyrrolidin-1-yl)ethoxy)ethyl)pyridin-3-yl)-7-fluoro-3-methyl-1-(tetrahydro-2H-pyran-4-yl)-1H-imidazo[4,5-c]cinnolin-2(3H)-one]		7.96
C[C@@H](OCCN1CCC2(CCC2)CC1)c1ccc(-c2cc3c(cc2F)nnc2c3n(C3CCOCC3)c(=O)n2C)cn1 [Example 156, (R)-8-(6-(1-(2-(7-azaspiro[3.5]nonan-7-yl)ethoxy)ethyl)pyridin-3-yl)-7-fluoro-3-methyl-1-(tetrahydro-2H-pyran-4-yl)-1H-imidazo[4,5-c]cinnolin-2(3H)-one]		8.22
CO[C@H]1C[C@H](n2c(=O)n(C)c3nnc4ccc(-c5ccc(COCCN6CCC7(CC7)C6)nc5)cc4c32)C1 [Example 159, 8-(6-((2-(5-azaspiro[2.4]heptan-5-yl)ethoxy)methyl)pyridin-3-yl)-1-(trans-3-methoxycyclobutyl)-3-methyl-1H-imidazo[4,5-c]cinnolin-2(3H)-one]	7.69	
CO[C@H]1C[C@H](n2c(=O)n(C)c3nnc4ccc(-c5ccc([C@@H](C)OCCN6CCC7(CC7)C6)nc5)cc4c32)C1 [Example 161, 8-(6-((R)-1-(2-(5-azaspiro[2.4]heptan-5-yl)ethoxy)ethyl)pyridin-3-yl)-1-(trans-3-methoxycyclobutyl)-3-methyl-1H-imidazo[4,5-c]cinnolin-2(3H)-one]		8.47
CO[C@@H]1CCN(CCO[C@H](C)c2ccc(-c3ccc4nnc5c(c4c3)n([C@H]3C[C@H](OC)C3)c(=O)n5C)cn2)C1 [Example 163, 1-(trans-3-methoxycyclobutyl)-8-(6-((R)-1-(2-((R)-3-methoxypyrrolidin-1-yl)ethoxy)ethyl)pyridin-3-yl)-3-methyl-1H-imidazo[4,5-c]cinnolin-2(3H)-one]		8.10
CO[C@H]1C[C@H](n2c(=O)n(C)c3nnc4ccc(-c5ccc([C@@H](C)OCCN6CCC7(CC6)CC7)nc5)cc4c32)C1 [Example 164, 8-(6-((R)-1-(2-(6-azaspiro[2.5]octan-6-yl)ethoxy)ethyl)pyridin-3-yl)-1-(trans-3-methoxycyclobutyl)-3-methyl-1H-imidazo[4,5-c]cinnolin-2(3H)-one]		8.66

— patent US20240207263A1, “SELECTIVE MODULATORS OF ATAXIA TELA[…] (ATM) KINASE AND USES THEREOF” (priority 2021, published 2024)
